According to publication PMC3545992, “Trisubstituted Pyrazolopyrimidines as Novel Angiogenesis Inhibitors” (PLoS ONE, 2013):
pIC50: −log10 of the molar value. Read-outs that look alike come from different tables or passages of the source.

Experiments:
HMEC-1 cells = test: Crystal violet proliferation assay; type: cell-based, human; conditions: HMEC-1, 72 h, read-out: IC50 endothelial cell proliferation
Description: HMEC-1 cells were seeded to a density of 1,500 cells/well. After 24 h of incubation, a zero point control was stained with crystal violet. The remaining cells were left untreated as positive control or treated with 0.3-1-3-10–30 µM of the indicated compounds. After 72 h additional incubation, relative proliferation was determined by crystal violet staining and quantified as absorption at 550 nm.
HMEC-1 were seeded into 96-well-plates (1,500 cells/well). After 24 h, the cells were stimulated with the indicated compounds. At the same time point, cells in a reference plate were stained with crystal violet, serving as initial cell number. After 72 hours of stimulation, cells were fixed and stained with crystal-violet solution for 10 minutes, washed with water, and air dried. Crystal violet was eluted with dissolving buffer and absorbance was measured at 550 nm (Tecan Sunrise Absorbance reader, TECAN, Crailsheim, Germany). In a parallel series of experiments, cells seeded at the same cell density as in the proliferation assays were treated with 30 µM of the respective compound for 72 h. Afterwards, 10 µg/ml propidium iodide was added for 30 min to counterstain cells for membrane integrity. Phase contrast and fluorescence images were obtained with an inverted Nikon microscope (Ti, Nikon, Düsseldorf, Germany) equipped with a 10x objective.

HUVECs [1] = test: Scratch assay (migration assay); type: cell-based, human
Description: A: HMEC-1 cells were seeded in the same density as for the proliferation assay and treated with the respective compound at 30 µM for 72 h to test whether reduced cell numbers in the proliferation assay are due to inhibition of proliferation or to excessive cell death. No increase of detached, obviously dead or propidium iodide positive cells was detected. B and C: Confluent layers of HUVECs were scratched and the cells were allowed to migrate for 16 h in the presence or absence of 10 µM of the compounds. B: The columns indicate the area re-covered by migrating cells (n = 3, mean ± SEM, * p<0.05, One Way ANOVA, Dunnett). C: Scratches at endpoint, representative images taken out of three experiments.
HUVECs were seeded into a 24-well plate. After reaching confluency, cells were scratched using a 100 µl pipette tip. The wounded monolayers were washed twice with PBS containing Ca^2+/Mg^2+; then growth medium containing the indicated concentration of the compounds was added. After 16 h of migration, cells were washed and subsequently fixed with 4% paraformaldehyde. […] Images were taken using the TILLvisON system (TILL Photonics GmbH, Gräfelfing, Germany) and a CCD-camera connected to an Axiovert 200 microscope (Zeiss, Oberkochen, Germany). Quantitative image analysis of the cell covered area was done by Wimasis GmbH, Munich. A completely closed scratch was set as 100% migration, the area of the original open scratch was set as 0% migration.

endothelial cells [2] = tested on: endothelial cells; parameters: method as in PMID 21487803; conditions: cited from earlier work
endothelial cells [3] = tested on: endothelial cells; parameters: method as in PMID 20826806; conditions: 10 µM; cited from earlier work
HUVECs [4] = test: Cell viability assay (CellTiter-Blue) in confluent HUVECs; type: cell-based, human; conditions: 30 µM, 16 h
Description: Figure 2 Cdk5 is expressed in HUVECs and HMEC-1 cells, and the compounds are not cytotoxic to endothelial cells at concentrations used in functional assays. A: Cdk5 protein expression in endothelial cells in comparison to human cortex. Cdk5 protein amount was analyzed by Western blot in samples of human cortex (HC), confluent HUVECs (HU) and HMEC-1 (HM). β-actin served as a loading control and for normalization of protein amount. Relative quantification (left panel) and one representative image (right panel) of three individual blots are shown. Note the much lower protein loading in the HC sample in the right panel. (n = 3, mean ± SEM, p>0.05, One Way ANOVA, Dunnett). B: Confluent HUVECs were treated for 16 h with 10 or 30 µM of the indicated compounds or left untreated as control. After addition of CellTiter-BlueTM Reagent, cells were incubated for 4 h and fluorescence was measured at 560 nm (n = 3, mean ± SEM, * p<0.05, One Way ANOVA, Dunnett).
HUVECs were seeded in 96-well plates. After reaching confluency, the cells were treated for 16 h with the indicated compounds or left untreated as control. After addition of CellTiter-Blue^TM Reagent (Promega Corporation, Madison, WI, USA), cells were incubated for additional 4 h and fluorescence was measured at 560 nm in a plate-reading photometer (SpectraFluor Plus; Tecan, Crailsheim, Germany).

| Structure (SMILES) | pIC50 (HMEC-1 cells; Homo sapiens) | cell viability in comparison to control (HUVECs [4]) | also measured |
| --- | --- | --- | --- |
| CC(C)c1n[nH]c2c(NCc3ccccc3N)nc(NC3CCCCC3N)nc12 (centres unmarked) [LGR 1430, 7-(2-Aminobenzyl)amino-5-[(2-E/Z-aminocyclohexyl)amino]-3-isopropyl-1(2)H-pyrazolo-[4,3-d]pyrimidine] | 5.21 | – | effect on migration (in words) (HUVECs [1]; 30 µM, data not shown): no detectable effect |
| CC[C@H](CO)Nc1nc(NCc2ccccc2)c2ncn(C(C)C)c2n1 [roscovitine, (R)-roscovitine] | – | – | concentration at which proliferation only started to be reduced (endothelial cells [2]): 30 µM; reduction of migration (endothelial cells [3]): 20% |
| CC(C)c1n[nH]c2c(NCc3ccccc3)nc(NC[C@@H](C)O)nc12 [LGR 1667, 7-Benzylamino-5(R)-[(2-hydroxypropyl)amino]-3-isopropyl-1(2)H-pyrazolo[4,3-d]pyrimidine] | 5.02 | – | – |
| CC(C)c1n[nH]c2c(NCc3ccccc3N)nc(NC[C@H](C)O)nc12 [LGR 1695, 7-(2-Aminobenzyl)amino-5(S)-[(2-hydroxypropyl)amino]-3-isopropyl-1(2)H–pyrazolo[4,3-d]pyrimidine] | 4.99 | weak but significant decrease of viability | – |
| CC(C)n1cnc2c(NCc3ccccc3N)nc(NC[C@@H](C)O)nc21 [LGR 1730] | ~4.70 | weak but significant decrease of viability | pIC50 (HMEC-1 cells): 4.74; effect on endothelial cell migration (in words) (HUVECs [1]; 10 µM, 16 h, HUVECs): no significant impact |
